Measured values as given in patent publication US7482341B2, “Pyridines” (Hoffmann-La Roche Inc., priority 2004, dated 2009).

Legend:
11beta-HSD1 [1] = target: T1, 11beta-HSD1 (Homo sapiens, UniProt P28845); test: Microsome assay (cortisone to cortisol, ELISA); assay type: biochemical; parameters: made in house; host or cells: HEK293 cells (ATCC CRL-1573), transient transfection with pcDNA3 construct; microsomal fraction; settings: microsomes from HEK293 cells transiently expressing human 11beta-HSD1; 60 min, 37° C.; cortisol production 50% reduced; read-out: h 11-beta-HSD 1 IC50
T1 sequence (P28845 whole entry): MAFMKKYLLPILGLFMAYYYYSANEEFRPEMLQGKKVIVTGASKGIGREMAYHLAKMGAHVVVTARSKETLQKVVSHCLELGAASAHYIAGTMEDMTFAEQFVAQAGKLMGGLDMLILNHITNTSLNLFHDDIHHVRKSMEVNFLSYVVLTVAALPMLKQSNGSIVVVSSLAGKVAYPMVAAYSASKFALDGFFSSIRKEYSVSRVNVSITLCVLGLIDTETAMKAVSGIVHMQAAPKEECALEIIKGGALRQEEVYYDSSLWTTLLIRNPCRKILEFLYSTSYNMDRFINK
Experimental: Transient Expression and Partial Purification:
The cDNA encoding the human 11beta-HSD1 protein was cloned into the expression vector pcDNA3 ([…]). This construct (for details see Alex Odermatt et al.; J Biol Chem.,1999, Vol. 274, Issue 40, 28762-28770) was used to transiently express the protein in HEK293 cells (ATCC number: CRL-1573, described in Graham, F. L., Smiley, J., Russell, W. C., Nairn, R.; (1977)) using lipofectamine. 48h after transfection cells were washed twice with ice-cold PBS (Phsophate buffered Saline). To 1 volume of cell suspension in PBS 2 volumes of ice-cold lysis buffer (50 mM Tris; pH7.5; 1 mM EDTA; 100 mM NaCl) were added. The cells were lysed by Potter-homogenization (20 strokes). The resulting homogenate was sonicated wit a tip sonicator (10% output; 2×30 sec.) and cleared by a low speed centrifugation (10 min×9000 g; 4° C.). […]
Microsomes isolated from HEK293 cells transiently expressing human 11beta-HSD1 (for details see above) were incubated in assay buffer (100 mM NaCl; 1 mM EDTA; 1 mM EGTA; 1 mM MgCl; 250 mM Sucrose; 20 mM Tris pH 7.4; Cortisone 50-200 nM and NADPH 1 mM) together with different concentrations of test substances. […] The amount of Cortisol produced in this assay was determined using a commercially available, ELISA-based Cortisol-detection kit (Distributed by Assay Design, Inc.). […]

11beta-HSD1 [2] = target: T1, 11beta-HSD1; parameters: host or cells: human subjects (in vivo); settings: humans, treatment with carbenoxolone; cited from earlier work

IC50 (11beta-HSD1 [1])	SMILES	insulin sensitivity (11beta-HSD1 [2])
5 nM	Cc1c(Cl)cccc1S(=O)(=O)Nc1ccc(Oc2ccc(F)cc2)cn1 [Example 186, 3-Chloro-N-[5-(4-fluoro-phenoxy)-pyridin-2-yl]-2-methyl-benzenesulfonamide benzenesulfonamide]	
16 nM	O=S(=O)(Nc1cccc(COCc2ccc(F)cc2)n1)c1ccc(F)cc1 [Example 105, 4-Fluoro-N-[6-(4-fluoro-benzyloxymethyl)-pyridin-2-yl]-benzenesulfonamide]	
	CC1(C)[C@@H](OC(=O)CCC(=O)O)CC[C@]2(C)[C@H]3C(=O)C=C4[C@@H]5C[C@@](C)(C(=O)O)CC[C@]5(C)CC[C@@]4(C)[C@]3(C)CC[C@@H]12 [carbenoxolone]	increase in insulin sensitivity
